Data on 25 molecules can be found in US20170107212A1, “NOVEL COMPOUNDS” (Bayer Pharma Aktiengesellschaft, priority 2014, published 2017).

One may read the IC50 as the midpoint of a concentration-inhibition curve. Low values mean greater potency, high ones weaker potency.

The test system of test [1] is constitutive active colorectal cancer cell (CRC) Wnt pathway, HCT116 TOPFlash. Put plainly: Cellular reporter assay, HCT116 Super TopFlash (constitutive active Wnt pathway), luciferase expression. Format: cell-based. The note with it: Homo sapiens, HCT-116, 36 h, HCT116 Super TopFlash reporter cells, 36 hours incubation, dilution series 50 μM to 15 nM. An outline of the steps:
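HCT116 cells stably carrying Super TopFlash (β-catenin ΔS45, constitutive Wnt) run in parallel with FOP control line; compounds 50 μM to 15 nM (3.16-fold) in CAFTY buffer pH 7.4 with 2 mM Ca2+, 0.01% BSA, 36 h at 37 °C. Luciferase luminescence read as Wnt activity.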
In general terms: A reporter such as luciferase makes a cellular process visible.

Test [2] concerns HCT116 FOPFlash. The test is described as follows: Control reporter assay, HCT116 FOP control vector (non-functional TCF elements), luciferase expression. It is filed as cell-based. The note with it: Homo sapiens, HCT-116, 36 h, HCT116 FOP control reporter cells, 36 hours incubation, dilution series 50 μM to 15 nM. In outline: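 Stable HCT116 cells carrying FOP vector (randomized non-functional TCF sites) plus pcDNA3, run in parallel with TOP line; compounds 50 μM to 15 nM (3.16-fold steps) added in CAFTY buffer pH 7.4 with 2 mM Ca2+, 0.01% BSA. Incubated 36 h at 37 °C, 5% CO2; luciferase luminescence read.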

For test [3], the system named is Dishevelled-2 protein. The note with it: according to WO 2011/035321 (A1); cited from earlier work.
The subject of test [4] is Frizzled1. The note with it: according to WO 2011/035321 (A1); cited from earlier work.
Test [5] has as its system LEF/TCF reporter activity. The note with it: Wnt3A-stimulated; according to WO 2011/035321 (A1); cited from earlier work.
Test [6] has as its system Wnt3A-stimulated R-catenin stabilization. The note with it: according to WO 2011/035321 (A1); cited from earlier work.

Consider `O=C(CN1CCOCC1)Nc1cc(C(=O)Nc2nnc(-c3ncccc3F)s2)ccc1OC(F)(F)F` [Example 96, N-[5-(3-fluoropyridin-2-yl)-1,3,4-thiadiazol-2-yl]-3-[(morpholin-4-ylacetyl)amino]-4-(trifluoromethoxy}benzamide], for which the half-inhibitory concentration (IC50) in test [1] and in test [2] was at least 50 µM in each case.

In the case of `CN1CCN(CC(=O)Nc2cc(C(=O)Nc3nnc(-c4cnccn4)s3)ccc2OC(F)(F)F)CC1` [Example 97, 3-{[(4-methylpiperazin-1-yl)acetyl]amino}-N-[5-(pyrazin-2-yl)-1,3,4-thiadiazol-2-yl]-4-(trifluoromethoxy)benzamide], the concentration for half-maximal inhibition (IC50) in test [1] was 7.05 µM; in test [2], at least 50 µM.

On to `Nc1cc(-c2nnc(NC(=O)c3ccc(OC(F)(F)F)c(NC(=O)CN4CCOCC4)c3)s2)ccn1` [Example 98, N-[5-(2-aminopyridin-4-yl)-1,3,4-thiadiazol-2-yl]-3-[(morpholin-4-ylacetyl)amino)-4-(trifluoromethoxy)benzamide], for which the concentration for half-maximal inhibition (IC50) in test [1] and in test [2] was at least 50 µM in each case.

In the case of `Cc1ncc(-c2nnc(NC(=O)c3ccc(OC(F)(F)F)c(NC(=O)CN4CCN(C)CC4)c3)s2)s1` [Example 99, 3-{[(4-methylpiperazin-1-yl)acetyl)amino}-N-[5-(2-methyl-1,3-thiazol-5-yl)-1,3,4-thiadiazol-2-yl]-4-(trifluoromethoxy)benzamide], the IC50 in test [1] is 8.55 µM; in test [2] it was at least 50 µM.

Consider `Cc1ncc(-c2nnc(NC(=O)c3ccc(OC(F)(F)F)c(NC(=O)CN4CCOCC4)c3)s2)s1` [Example 100, N-[5-(2-methyl-1,3-thiazol-5-yl)-1,3,4-thiadiazol-2-yl]-3-[(morpholin-4-ylacetyl)amino]-4-(trifluoromethoxy)benzamide], for which the half-inhibitory concentration (IC50) was 41 µM in test [1] and at least 50 µM in test [2].

Turning to `O=C(CN1CCOCC1)Nc1cc(C(=O)Nc2nnc(-c3nccs3)s2)ccc1OC(F)(F)F` [Example 101, 3-[(morpholin-4-ylacetyl)amino]-N-[5-(1,3-thiazol-2-yl)-1,3,4-thiadiazol-2-yl]-4-(trifluoromethoxy)benzamide], the half-inhibitory concentration (IC50) in test [1] and in test [2] was at least 50 µM in each case.

In the case of `Cc1cncc(-c2nnc(NC(=O)c3ccc(OC(F)(F)F)c(NC(=O)CN4CCN(C)CC4)c3)s2)n1` [Example 102, 3-{[(4-methylpiperazin-1-yl)acetyl]amino}-N-[5-(6-methylpyrazin-2-yl)-1,3,4-thiadiazol-2-yl]-4-(trifluoromethoxy)benzamide], the half-inhibitory concentration (IC50) in test [1] is 0.18 µM; in test [2], at least 50 µM.

Take `O=C(CN1CCOCC1)Nc1cc(C(=O)Nc2nnc(-c3cncs3)s2)ccc1OC(F)(F)F` [Example 103, 3-[(morpholin-4-ylacetyl)amino)-N-[5-(1,3-thiazol-5-yl)-1,3,4-thiadiazol-2-yl]-4-(trifluoromethoxy)benzamide]: the figures for the concentration for half-maximal inhibition (IC50) in test [1] and in test [2] were 12.2 µM and at least 50 µM, respectively.

`Nc1ncc(-c2nnc(NC(=O)c3ccc(OC(F)(F)F)c(NC(=O)CN4CCOCC4)c3)s2)s1` [Example 104, N-[5-(2-amino-1,3-thiazol-5-yl)-1,3,4-thiadiazol-2-yl]-3-[(morpholin-4-ylacetyl)amino]-4-(trifluoromethoxy)benzamide]: the IC50 is 17.9 µM in test [1] and at least 50 µM in test [2].

In the case of `Cc1scnc1-c1nnc(NC(=O)c2ccc(OC(F)(F)F)c(NC(=O)CN3CCOCC3)c2)s1` [Example 105, N-[5-(5-methyl-1,3-thiazol-4-yl)-1,3,4-thiadiazol-2-yl)-3-[(morpholin-4-ylacetyl)amino]-4-(trifluoromethoxy)benzamide], the IC50 in test [1] and in test [2] was at least 50 µM throughout.

As to `COc1ccc(C(=O)Nc2nnc(-c3cnccc3C)s2)cc1NC(=O)CN1CCOCC1` [Example 106, 4-methoxy-N-[5-(4-methylpyridin-3-yl)-1,3,4-thiadiazol-2-yl]-3-[(morpholin-4-ylacetyl)amino]benzamide], the concentration for half-maximal inhibition (IC50) in test [1] and in test [2] was at least 50 µM throughout.

For the molecule `O=C(CN1CCOCC1)Nc1cc(C(=O)Nc2nnc(-c3cnccc3F)s2)ccc1OC(F)(F)F` [Example 107, N-[5-(4-fluoropyridin-3-yl)-1,3,4-thiadiazol-2-yl]-3-[(morpholin-4-ylacetyl)amino]-4-(trifluoromethoxy)benzamide], the IC50 in test [1] and in test [2] was at least 50 µM each time.

`Cc1ncsc1-c1nnc(NC(=O)c2ccc(OC(F)(F)F)c(NC(=O)CN3CCOCC3)c2)s1` [Example 108, N-[5-(4-methyl-1,3-thiazol-5-yl)-1,3,4-thiadiazol-2-yl)-3-[(morpholin-4-ylacetyl)amino]-4-(trifluoromethoxy)benzamide]: the IC50 in test [1] and in test [2] was at least 50 µM in each case.

In the case of `CN1CCN(CC(=O)Nc2cc(C(=O)Nc3nnc(-c4cnccc4F)s3)ccc2OC(F)(F)F)CC1` [Example 109, N-[5-(4-fluoropyridin-3-yl)-1,3,4-thiadiazol-2-yl]-3-{[(4-methylpiperazin-1-yl)acetyl]amino}-4-(trifluoromethoxy}benzamide], the results for the concentration for half-maximal inhibition (IC50) in test [1] and in test [2] were 32 µM and at least 50 µM, respectively.

With `O=C(CN1CCOCC1)Nc1cc(C(=O)Nc2nnc(-c3cnccc3C(F)(F)F)s2)ccc1OC(F)(F)F` [Example 110, 3-[(morpholin-4-ylacetyl)amino)-4-(trifluoromethoxy)-N-{5-[4 (trifluoromethyl)pyridin-3-yl)-1,3,4-thiadiazol-2-yl}benzamide], the results for the half-maximal inhibitory concentration (IC50) in test [1] and in test [2] were 33 µM and at least 50 µM, respectively.

`Cc1ncsc1-c1nnc(NC(=O)c2ccc(OC(F)(F)F)c(NC(=O)CN3CCN(C)CC3)c2)s1` [Example 111, 3-{[(4-methylpiperazin-1-yl)acetyl]amino}-N-[5-(4-methyl-1,3-thiazol-5-yl)-1,3,4-thiadiazol-2-yl]-4-(trifluoromethoxy)benzamide]: the IC50 in test [1] and in test [2] was at least 50 µM each time.

As for `CN1CCN(CC(=O)Nc2cc(C(=O)Nc3nnc(-c4cncnc4)s3)ccc2OC2CC2)CC1` [Example 112, 4-(cyclopropyloxy)-3-{[(4-methylpiperazin-1-yl)acetyl]amino}-N-[5-(pyrimidin-5-yl)-1,3,4-thiadiazol-2-yl]benzamide], the IC50 in test [1] is 0.33 µM; in test [2], at least 50 µM.

With `O=C(CN1CCOCC1)Nc1cc(C(=O)Nc2nnc(-c3cccnc3)s2)ccc1OC1COC1` [Example 113, 3-[(morpholin-4-ylacetyl)amino)-4-(oxetan-3 yloxy)-N-[5-(pyridin-3-yl)-1,3,4-thiadiazol-2-yl]benzamide], the IC50 in test [1] is 27 µM; in test [2] it was at least 50 µM.

Regarding `COCCCOc1ccc(C(=O)Nc2nnc(-c3cnccc3C)s2)cc1NC(=O)CN1CCN(C)CC1` [Example 114, 4-(3-methoxypropoxy)-3-{[(4-methylpiperazin-1-yl)acetyl)amino}-N-[5-(4-methylpyridin-3-yl)-1,3,4-thiadiazol-2-yl]benzamide], the IC50 in test [1] is 26.1 µM; in test [2] it was at least 50 µM.

`Cc1ccncc1-c1nnc(NC(=O)c2ccc(OCC3COC3)c(NC(=O)CN3CCN(C)CC3)c2)s1` [Example 115, 3-{[(4-methylpiperazin-1-yl)acetyl]amino}-N-[5-(4-methylpyridin-3-yl)-1,3,4-thiadiazol-2-yl]-4-(oxetan-3-ylmethoxy)benzamide]: the half-maximal inhibitory concentration (IC50) in test [1] and in test [2] was at least 50 µM throughout.

`O=C(CN1CCOCC1)Nc1cc(C(=O)Nc2nnc(-c3ccncc3)s2)ccc1OC1CC1` [Example 116, 4-(cyclopropyloxy)-3-[(morpholin-4-ylacetyl)amino]-N-[5-(pyridin-4-yl)-1,3,4-thiadiazol-2-yl]benzamide]: the IC50 in test [1] and in test [2] was at least 50 µM each time.

Take `O=C(CN1CCOCC1)Nc1cc(C(=O)Nc2nnc(-c3cnccn3)s2)ccc1OC1CC1` [Example 117, 4-(cyclopropyloxy)-3-[(morpholin-4-ylacetyl)amino]-N-[5-(pyrazin-2-yl)-1,3,4-thiadiazol-2-yl]benzamide]: the half-inhibitory concentration (IC50) in test [1] and in test [2] was at least 50 µM in each case.

Turning to `O=C(CN1CCOCC1)Nc1cc(C(=O)Nc2ccc(-c3cccnc3)cn2)ccc1OC1CC1` [Example 118, N-(3,3′-bipyridin-6-yl)-4-(cyclopropyloxy)-3-[(morpholin-4-ylacetyl)amino]benzamide], the IC50 in test [1] and in test [2] was at least 50 µM each time.

For `Nc1ccc(-c2nnc(NC(=O)c3ccc(OC4CC4)c(NC(=O)CN4CCOCC4)c3)s2)cn1` [Example 119, N-[5-(6-aminopyridin-3-yl)-1,3,4-thiadiazol-2-yl]-4-(cyclopropyloxy)-3-[(morpholin-4-ylacetyl)amino]benzamide], the IC50 in test [1] and in test [2] was at least 50 µM in each case.

For `O=C(Nc1ccc([N+](=O)[O-])cc1Cl)c1cc(Cl)ccc1O` [niclosamide], the Dishevelled-2 protein regulation result in test [3] was “down regulates Dishevelled-2 protein”. Further, the “Frizzled1 internalization (endocytosis)” value in test [4] is on record as “promotes Frizzled1 internalization (endocytosis)”. Moreover, the LEF/TCF reporter activity result in test [5] is “inhibits”. Moreover, the “Wnt3A-stimulated R-catenin stabilization” value in test [6] is listed as “inhibits”.
